In patent publication US11578079B2, “SUMO inhibitor compounds and uses thereof” (CITY OF HOPE, priority 2018, dated 2023):

Assays:
SUMO = molecular target: T1, SUMO (Homo sapiens, UniProt Q9UBT2); assay: SUMO activity (Table I, biological activities); format: biochemical; design: key: + (less active); ++ (active); +++ (most active)
T1 sequence (Q9UBT2 1-640): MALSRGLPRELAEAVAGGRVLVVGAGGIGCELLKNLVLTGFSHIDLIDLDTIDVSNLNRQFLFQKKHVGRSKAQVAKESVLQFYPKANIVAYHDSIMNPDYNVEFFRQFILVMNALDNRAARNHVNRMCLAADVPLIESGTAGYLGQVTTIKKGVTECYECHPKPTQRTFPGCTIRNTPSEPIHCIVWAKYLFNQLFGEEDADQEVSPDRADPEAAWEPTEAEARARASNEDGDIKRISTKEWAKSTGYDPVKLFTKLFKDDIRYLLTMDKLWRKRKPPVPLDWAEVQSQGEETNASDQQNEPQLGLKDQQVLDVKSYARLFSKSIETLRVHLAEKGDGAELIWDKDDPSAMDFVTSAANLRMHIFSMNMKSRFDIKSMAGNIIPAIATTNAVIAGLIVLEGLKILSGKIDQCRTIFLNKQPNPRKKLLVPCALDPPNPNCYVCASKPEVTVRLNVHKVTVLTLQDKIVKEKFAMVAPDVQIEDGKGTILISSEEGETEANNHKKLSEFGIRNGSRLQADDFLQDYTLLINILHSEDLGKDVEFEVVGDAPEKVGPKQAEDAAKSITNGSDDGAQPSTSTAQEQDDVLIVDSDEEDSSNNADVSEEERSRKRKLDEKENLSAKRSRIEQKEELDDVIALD
T1 sequence (Q9UBE0 1-346 partner): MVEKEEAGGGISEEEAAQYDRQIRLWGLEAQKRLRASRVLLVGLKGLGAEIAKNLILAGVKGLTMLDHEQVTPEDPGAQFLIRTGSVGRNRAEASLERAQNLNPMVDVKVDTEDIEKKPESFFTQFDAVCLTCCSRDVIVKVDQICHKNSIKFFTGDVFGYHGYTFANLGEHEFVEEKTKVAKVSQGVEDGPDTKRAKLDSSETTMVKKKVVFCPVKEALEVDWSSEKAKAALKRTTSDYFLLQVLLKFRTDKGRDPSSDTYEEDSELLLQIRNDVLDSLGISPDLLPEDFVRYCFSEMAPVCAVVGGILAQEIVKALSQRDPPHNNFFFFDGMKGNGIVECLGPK

c-Myc = c-Myc activity (Table I, biological activities); design: key: + (less active); ++ (active); +++ (most active)

Row | Structure (SMILES) | SUMO (SUMO) | c-Myc (c-Myc)
1 | COC(=O)C1=C(C(=O)NC(C)C(N)=O)C2C=CC1(C(Cc1ccccc1)Nc1cc(F)cc(F)c1)O2 (stereo not drawn) [Compound 243] | ++ | +
2 | CCOc1cccc(NC(Cc2ccccc2)C23C=CC(O2)C(C(=O)NC2CCN(C)CC2)=C3C(=O)OC)c1 (stereo not drawn) [Compound 247] | +++ | +
3 | CCOc1cccc(NC(Cc2ccccc2)C23C=CC(O2)C(C(=O)NC2CCN(C)C2)=C3C(=O)OC)c1 (stereo not drawn) [Compound 248] | +++ | ++
4 | CCOc1cccc(NC(Cc2ccccc2)C23C=CC(O2)C(C(=O)NCCN(C)C)=C3C(=O)OC)c1 (stereo not drawn) [Compound 251] | +++ | +
5 | CCOc1cccc(NC(Cc2ccccc2)C23C=CC(O2)C(C(=O)NCc2ccncc2)=C3C(=O)OC)c1 (stereo not drawn) [Compound 254] | ++ | +
6 | CCOC(=O)C1=C(C(=O)OCC)C2(C(Cc3ccccc3)Nc3ccccc3)C=CC1(C)O2 (stereo not drawn) [Compound 260] | ++ | +
7 | COC(=O)C1=C(C(=O)NC2CCN(C)CC2)C2C=CC1(C(Cc1ccccc1)Nc1ccc(F)cc1)O2 (stereo not drawn) [Compound 262] | ++ | ++
8 | COC(=O)C1=C(C(=O)NCCN(C)C)C2C=CC1(C(Cc1ccccc1)Nc1ccc(F)cc1)O2 (stereo not drawn) [Compound 264] | +++ | ++
9 | CCCCC(Nc1ccccc1)C12C=CC(O1)C(C(=O)NC1CCN(C)CC1)=C2C(=O)OC (stereo not drawn) [Compound 267] | ++ | ++
10 | COC(=O)C1=C(C(=O)NC2CCN(C)CC2)C2C=CC1(C(Cc1ccccc1)Nc1ccccc1F)O2 (stereo not drawn) [Compound 272] | ++ | +
11 | COC(=O)C1=C(C(N)=O)C2C=CC1(C(Cc1ccccc1)Nc1ccccc1)O2 (stereo not drawn) [Compound 274] | +++ | ++
12 | COC(=O)C1=C(C(=O)Nc2cccc(F)c2)C2C=CC1(C(Cc1ccccc1)Nc1ccccc1)O2 (stereo not drawn) [Compound 276] | ++ | +
13 | COCCN1CCC(NC(=O)C2=C(C(=O)OC)C3(C(Cc4ccccc4)Nc4ccccc4)C=CC2O3)CC1 (stereo not drawn) [Compound 278] | +++ | ++

More lines, main results first:

Row | SUMO (SUMO) | Structure (SMILES) | c-Myc (c-Myc)
14 | ++ | COC(=O)C1=C(C(=O)Nc2cccnc2)C2C=CC1(C(Cc1ccccc1)Nc1cc(F)cc(F)c1)O2 (stereo not drawn) [Compound 241] | ++
15 | ++ | COC(=O)C1=C(C(=O)NC2CCN(C(=O)OC(C)(C)C)CC2)C2C=CC1(C(Cc1ccccc1)Nc1cc(F)cc(F)c1)O2 (stereo not drawn) [Compound 242] | +
16 | +++ | COC(=O)CNC(=O)C1=C(C(=O)OC)C2(C(Cc3ccccc3)Nc3cc(F)cc(F)c3)C=CC1O2 (stereo not drawn) [Compound 245] | ++
17 | ++ | CCOc1cccc(NC(Cc2ccccc2)C23C=CC(O2)C(C(N)=O)=C3C(=O)OC)c1 (stereo not drawn) [Compound 249] | +
18 | +++ | CCOc1cccc(NC(Cc2ccccc2)C23C=CC(O2)C(C(=O)NCCN2CCOCC2)=C3C(=O)OC)c1 (stereo not drawn) [Compound 252] | ++
19 | ++ | CCOc1cccc(NC(Cc2ccccc2)C23C=CC(O2)C(C(=O)Nc2ccncc2)=C3C(=O)OC)c1 (stereo not drawn) [Compound 253] | +
20 | ++ | COC(=O)C1=C(C(=O)NC2CCN(C)C2)C2C=CC1(C(Cc1ccccc1)Nc1cc(F)cc(F)c1)O2 (stereo not drawn) [Compound 256] | +
21 | ++ | COC(=O)C1=C(C(=O)NC2CCN(C)CC2)C2C=CC1(C(Cc1ccccc1)Nc1c(F)cccc1F)O2 (stereo not drawn) [Compound 258] | +
22 | +++ | COC(=O)C1=C(C(=O)NC2CCN(C)C2)C2C=CC1(C(Cc1ccccc1)Nc1ccc(F)cc1)O2 (stereo not drawn) [Compound 263] | ++
23 | +++ | CCCCC(Nc1cc(F)cc(F)c1)C12C=CC(O1)C(C(=O)NC1CCN(C)CC1)=C2C(=O)OC (stereo not drawn) [Compound 266] | +
24 | +++ | COC(=O)C1=C(C(=O)NC2CCN(C(C)C)CC2)C2C=CC1(C(Cc1ccccc1)Nc1ccccc1)O2 (stereo not drawn) [Compound 277] | ++
